A short description of data set [1]: Cellular uptake in perinuclear region of cytoplasm in human HeLa cells at 0.13 to 1 uM after 1 hr by fluorescence microscopic analysis. It is filed as ADME, cell-based.
The subject of data set [2] is HeLa. The data set can be described thus: Cellular uptake in human HeLa cells at 0.5 uM at 4 degC after 30 mins by fluorescence microscopic analysis. It is filed as ADME, cell-based. The settings on record: 0.5 h.
The test system of data set [3] is HeLa. Put plainly: Cellular uptake in human HeLa cells at 0.5 uM at 37 degC after 30 mins by fluorescence microscopic analysis. It is filed as ADME, cell-based. Particulars: 0.5 h.
Data set [4] has as its system HeLa. The data set can be described thus: Cytotoxicity against human HeLa cells after 24 hrs by XTT assay. It is filed as functional, cell-based.
The nature of data set [5]: Cellular uptake in human HeLa cell endoplasmic reticulum at 1 uM by […] staining-based fluorescence microscopic analysis. The format is ADME.
For data set [6], the system named is HeLa. The data set can be described thus: Cellular uptake in human HeLa cell lysate at 1 uM after 1 hr by fluorescence spectroscopic analysis. It is filed as ADME, cell-based.
The nature of data set [7]: Cellular uptake in perinuclear region of cytoplasm in human HeLa cells at 0.5 uM after 10 mins by fluorescence microscopic analysis. The format is ADME, cell-based.
Data set [8] can be described thus: Cellular uptake in human HeLa cell golgi complex at 1 uM by BODIPY TR-ceramide-based fluorescence microscopic analysis. It is filed as ADME.
Data set [9] is described as follows: Cellular uptake in human HeLa cell mitochondria at 1 uM by […]-based fluorescence microscopic analysis. The format is ADME.
Data set [10] is described as follows: Cellular uptake in perinuclear region of cytoplasm in human HeLa cells at 1 uM after 1 hr by fluorescence microscopic analysis. The format is ADME, cell-based.
A short description of data set [11]: Cytotoxicity against human NCI60 cells. The format is functional, cell-based.

Activity calls are given as the source filed them. The rule behind the calls is not given here.

What is called IC50 is the midpoint of a concentration-inhibition curve. Lower therefore signals inhibition by little substance.

Take `COc1ccc(C(=O)O[C@H]2[C@H](O[C@@H]3[C@@H](OC(C)=O)[C@H](O[C@H]4C[C@H]5[C@@H]6CC=C7C[C@@H](O)CC[C@]7(C)[C@H]6CC[C@]5(C)[C@@]4(O)[C@H](C)C(=O)CCC(C)C)OC[C@@H]3O)OC[C@@H](O)[C@@H]2OC(=O)CN(C)c2ccc(S(=O)(=O)N(C)C)c3nonc23)cc1`: the Drug uptake entry in data set [1] was “Active”; in [2], “Not Active”; in data set [3] it was “Active”; in [5], “Active”; in data set [6], “Active”; in data set [7] it was “Active”. Moreover, the Drug uptake result is recorded as “Active” in data set [8] and “Not Active” in data set [9]. In addition, the half-inhibitory concentration (IC50) in data set [4] amounted to 5 nM.
Consider `COC(=O)CN(C)c1ccc(S(=O)(=O)N(C)C)c2nonc12`, for which the inhibition result in data set [4] is “inactive”. Besides, the Drug uptake entry in data set [10] is “Not Active”.
Regarding `COc1ccc(C(=O)O[C@H]2[C@H](O[C@@H]3[C@@H](OC(C)=O)[C@H](O[C@H]4C[C@H]5[C@@H]6CC=C7C[C@@H](O)CC[C@]7(C)[C@H]6CC[C@]5(C)[C@@]4(O)[C@H](C)C(=O)CCC(C)C)OC[C@@H]3O)OC[C@@H](O)[C@@H]2O)cc1`, the IC50 in data set [4] was 2.6 nM; in data set [11], 0.78 nM.

The values are drawn from ChEMBL document CHEMBL3232784, “Fluorescent analog of OSW-1 and its cellular localization” (Bioorg Med Chem Lett, 2014).
